Key:
[1] = test system: post-junctional α₂-adrenoceptors; assay: Post-junctional α₂-adrenoceptor antagonism: antagonism of noradrenaline contractions in ring segments of rabbit lateral saphenous vein; settings: rabbit lateral saphenous vein rings, 37°C, Krebs medium
Description: To determine post-junctional α₂-adrenoceptor activity, ring segments of rabbit lateral saphenous vein were mounted in organ baths at 37 °C containing Krebs medium. Contractions of this tissue in response to noradrenaline are mediated via post-junctional α₂-adrenoceptors (Alabaster et al, 1985) and therefore the ability of α₂-adrenoceptor antagonists to pharmacologically antagonise such contractions gives a quantitive measure of the activity of compounds for this receptor subtype.

[2] = test system: post-junctional α₁-adrenoceptors; assay: Post-junctional α₁-adrenoceptor agonism: contraction of rings of rabbit aorta in comparison with noradrenaline; settings: agonist contraction in comparison with noradrenaline
Description: Post-junctional α₁ activity was determined using a method similar to that for post-junctional α₂ activity, but using rings of rabbit aorta. Contractions of this tissue are mediated by post-junctional α₁-adrenoceptors (Docherty et al. 1981), and so the pD2 and intrinsic activity (IA) of α₁-adrenoceptor agonists were calculated from their ability to contract the rings of aorta in comparison with noradrenaline.

α2-Adrenoceptor = biological target: T1, α2-Adrenoceptor (Homo sapiens, UniProt P08913); assay: α2-Adrenoceptor binding: [³H] Rauwolscine displacement on human platelet membranes; settings: [³H] Rauwolscine (0.5-1.0 nM), 30 minutes at 30°C, Cheng Prussoff equation, read-out: Binding Affinity. Ki
T1 construct: Rauwolscine; from tissue; host or cells: human platelet membranes
T1 sequence (P08913 1-465): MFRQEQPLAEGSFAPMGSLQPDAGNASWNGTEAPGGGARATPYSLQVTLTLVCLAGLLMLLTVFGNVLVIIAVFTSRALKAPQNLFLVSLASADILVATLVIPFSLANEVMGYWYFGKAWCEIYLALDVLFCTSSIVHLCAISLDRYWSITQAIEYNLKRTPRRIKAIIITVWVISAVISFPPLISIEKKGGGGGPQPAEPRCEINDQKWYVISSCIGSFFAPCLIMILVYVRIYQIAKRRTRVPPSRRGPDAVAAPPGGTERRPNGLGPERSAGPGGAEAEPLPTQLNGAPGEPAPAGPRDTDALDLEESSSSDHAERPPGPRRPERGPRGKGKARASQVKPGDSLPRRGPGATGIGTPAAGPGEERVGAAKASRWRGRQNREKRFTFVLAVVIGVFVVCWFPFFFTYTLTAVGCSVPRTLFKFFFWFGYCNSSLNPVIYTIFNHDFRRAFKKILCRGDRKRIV
Description: Human platelet membranes were incubated with [³H] Rauwolscine (0.5-1.0 nM) for 30 minutes at 30 °C with varying concentrates of the drug (0.1-10,000 nM). The binding assay was stopped by filtering and rinsing on GF/B glass fibre filters.
Binding Affinity (Ki) was calculated using the Cheng Prussoff equation.

Ki (α2-Adrenoceptor): 300 pM
Compound: C[C@@H]1c2ccccc2CN1CC1=NCCN1 [Example 1, (R)-2-[(4,5-Dihydro-1H-imidazol-2-yl)methyl]-2,3-dihydro-1-methyl-1H-isoindole]
Post-synaptic PA₂ [1]: 7.3 | Post-synaptic pD₂ [2]: <4
